These results are taken from ChEMBL document CHEMBL1131112, “Matrix metalloproteinase inhibitors: a structure-activity study” (J Med Chem, 1998).

SMILES strings stand for the structures.

The target in one assay is Neutrophil collagenase (Homo sapiens, UniProt P22894).
Assay [1] concerns the target 72 kDa type IV collagenase (Homo sapiens, UniProt P08253).
Description: Binding affinity towards 72 kDa gelatinase (Matrix metalloprotease-2)
Assay [2] deals with Matrix metalloproteinase-9 (Homo sapiens, UniProt P14780).
Description: The compound was tested for its binding affinity towards 92 kDa gelatinase (Matrix metalloprotease-9)

What is called Ki is a measure of affinity in units of concentration, obtained from inhibition or displacement. Read a high Ki as weaker binding.

Sequence of Neutrophil collagenase (P22894 whole entry): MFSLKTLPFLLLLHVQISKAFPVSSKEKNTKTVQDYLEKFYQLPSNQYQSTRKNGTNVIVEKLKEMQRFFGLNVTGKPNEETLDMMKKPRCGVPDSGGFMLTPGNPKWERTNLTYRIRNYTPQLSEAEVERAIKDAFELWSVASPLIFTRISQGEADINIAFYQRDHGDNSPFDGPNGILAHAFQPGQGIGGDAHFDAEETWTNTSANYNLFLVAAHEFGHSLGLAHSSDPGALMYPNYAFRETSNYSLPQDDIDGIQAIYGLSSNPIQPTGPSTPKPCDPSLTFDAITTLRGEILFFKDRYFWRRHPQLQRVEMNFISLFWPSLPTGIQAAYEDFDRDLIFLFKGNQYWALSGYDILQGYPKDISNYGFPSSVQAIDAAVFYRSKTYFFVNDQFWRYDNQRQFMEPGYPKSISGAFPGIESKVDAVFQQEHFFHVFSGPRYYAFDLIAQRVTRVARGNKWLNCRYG
Sequence of Matrix metalloproteinase-9 (P14780 whole entry): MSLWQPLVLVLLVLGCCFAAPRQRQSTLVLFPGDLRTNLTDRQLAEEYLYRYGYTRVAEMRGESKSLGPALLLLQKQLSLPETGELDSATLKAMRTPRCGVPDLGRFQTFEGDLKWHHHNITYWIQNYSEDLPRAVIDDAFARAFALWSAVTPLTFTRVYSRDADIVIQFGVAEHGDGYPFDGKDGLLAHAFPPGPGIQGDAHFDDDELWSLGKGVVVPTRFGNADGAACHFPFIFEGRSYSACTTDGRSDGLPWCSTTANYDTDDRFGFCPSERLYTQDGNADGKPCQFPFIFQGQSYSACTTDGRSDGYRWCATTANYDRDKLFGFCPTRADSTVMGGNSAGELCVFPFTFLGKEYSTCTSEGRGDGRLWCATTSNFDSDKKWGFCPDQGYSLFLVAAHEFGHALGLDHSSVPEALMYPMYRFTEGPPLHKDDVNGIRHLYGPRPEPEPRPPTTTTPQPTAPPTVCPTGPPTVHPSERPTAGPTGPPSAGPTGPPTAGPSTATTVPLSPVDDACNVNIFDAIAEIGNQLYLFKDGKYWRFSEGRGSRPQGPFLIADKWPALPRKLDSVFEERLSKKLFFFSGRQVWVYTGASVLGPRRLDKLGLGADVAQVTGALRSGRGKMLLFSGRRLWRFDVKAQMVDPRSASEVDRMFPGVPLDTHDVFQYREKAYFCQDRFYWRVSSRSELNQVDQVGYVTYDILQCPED
Sequence of 72 kDa type IV collagenase (P08253 whole entry): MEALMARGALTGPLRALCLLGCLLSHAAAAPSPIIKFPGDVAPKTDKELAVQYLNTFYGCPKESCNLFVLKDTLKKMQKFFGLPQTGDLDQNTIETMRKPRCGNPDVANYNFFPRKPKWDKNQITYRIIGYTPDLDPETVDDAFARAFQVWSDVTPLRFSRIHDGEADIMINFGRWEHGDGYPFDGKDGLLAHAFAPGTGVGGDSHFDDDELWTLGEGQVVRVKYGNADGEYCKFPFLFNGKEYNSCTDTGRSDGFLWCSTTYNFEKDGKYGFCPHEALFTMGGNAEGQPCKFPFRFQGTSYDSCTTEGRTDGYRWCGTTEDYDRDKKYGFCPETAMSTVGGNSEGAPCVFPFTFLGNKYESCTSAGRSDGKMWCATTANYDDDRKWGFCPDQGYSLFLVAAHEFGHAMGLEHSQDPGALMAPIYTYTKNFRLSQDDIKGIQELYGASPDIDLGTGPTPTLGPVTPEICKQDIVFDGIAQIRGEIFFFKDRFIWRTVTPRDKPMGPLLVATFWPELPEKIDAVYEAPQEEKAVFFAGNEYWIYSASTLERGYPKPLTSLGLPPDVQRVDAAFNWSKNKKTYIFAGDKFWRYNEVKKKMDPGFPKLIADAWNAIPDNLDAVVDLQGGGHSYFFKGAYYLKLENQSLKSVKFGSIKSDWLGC
Description for Neutrophil collagenase: The compound was tested for its binding affinity towards neutrophil collagenase (Matrix metalloprotease-8)

As for `CCCCCCCC[C@H](CC(=O)NO)C(=O)N[C@@H](Cc1c[nH]c2ccccc12)C(=O)NC`, the Ki amounted to 1.6 nM on Neutrophil collagenase, 0.66 nM in assay [1] and 0.63 nM in assay [2].

In the case of `CNC(=O)[C@H](Cc1c[nH]c2ccccc12)NC(=O)[C@@H](CC(=O)NOCC(=O)OC)CC(C)C`, the Ki at Neutrophil collagenase is 460 nM; in assay [1] it was 71000 nM; in assay [2], 580 nM.

Take `CC(C)C[C@H](CC(=O)NO)C(=O)N[C@H](Cc1ccncc1)C(=O)N[C@@H](C)c1ccccc1`: the Ki came to 0.7 nM at Neutrophil collagenase, 1.9 nM in assay [1] and 2.5 nM in assay [2].

For `CC(C)C[C@H](CC(=O)NO)C(=O)N[C@H](Cc1ccc2ccccc2c1)C(=O)NCCc1ccc(O)cc1`, the Ki was found to be 4.5 nM on Neutrophil collagenase, 8.1 nM in assay [1] and 1.7 nM in assay [2].

As for `CNC(=O)[C@H](Cc1c[nH]c2ccccc12)NC(=O)[C@@H](CC(=O)NOCc1ccccc1)CC(C)C`, the Ki on Neutrophil collagenase was found to be 16 nM; in assay [1], 11 nM; in assay [2], 13 nM.

Turning to `CC(C)C[C@H](CC(=O)NO)C(=O)N(C)[C@@H](Cc1c[nH]c2ccccc12)C(=O)NCCCN1CCOCC1`, the Ki worked out at 77 nM at Neutrophil collagenase, 55 nM in assay [1] and 69 nM in assay [2].

In the case of `CC(C)C[C@H](CC(=O)NO)C(=O)N[C@H](Cc1ccc2ccccc2c1)C(=O)NCCCN1CCOCC1`, the inhibitory constant (Ki) on Neutrophil collagenase was 4.5 nM; in assay [1] it was 3 nM; in assay [2], 3.5 nM.

Regarding `CCCCCC[C@H](CC(=O)NO)C(=O)N[C@@H](Cc1c[nH]c2ccccc12)C(=O)NC`, the Ki at Neutrophil collagenase was found to be 0.24 nM; in assay [1], 0.21 nM; in assay [2], 0.41 nM.

Turning to `CNC(=O)[C@@H](CC(C)C)NC(=O)C(CC(C)C)C(O)C(=O)NO` (single isomer, unassigned), the Ki on Neutrophil collagenase came out at 0.53 nM; in assay [1] it was 0.47 nM; in assay [2] it was 2.3 nM.

Regarding `CNC(=O)[C@H](Cc1c[nH]c2ccccc12)NC(=O)C(CC(C)C)C(O)C(=O)NO` (single isomer, unassigned), the Ki was 0.41 nM on Neutrophil collagenase, 0.89 nM in assay [1] and 1.7 nM in assay [2].
